Laboratory results reported in patent US9650339B2, “Inhibitors of histone demethylases” (Gilead Sciences, Inc., priority 2013, dated 2017).

Legend:
Assay type in all cases: biochemical
KDM5C (JARID1C) = target: T1, KDM5C (JARID1C) (Homo sapiens, UniProt P41229); experiment: Histone lysine demethylase AlphaLISA assay, KDM5C; conditions: read-out: KDM5C HDME Inhibition IC50
T1 construct: 2-1560; purchased BPS; host or cells: Bac (baculovirus system)
In short: (§1)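 Enzyme 10 min pre-incubation; + compound (3% DMSO soln) 10 min; + biotin-H3 methyl-Lys peptide, 25 μM L-Asc, 10 μM α-KG, RT. Read: AlphaLISA acceptor beads, then streptavidin donor beads, RT, dark.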

KDM3A (JMJD1A) = target: T2, KDM3A (JMJD1A) (Homo sapiens, UniProt Q9Y4C1); experiment: Histone lysine demethylase AlphaLISA assay, KDM3A; conditions: read-out: KDM3 A HDME Inhibition IC50
T2 construct: 2-end; purchased BPS Bioscience, US; host or cells: Bac (baculovirus system)
T2 sequence (Q9Y4C1 2-1321 limits assumed): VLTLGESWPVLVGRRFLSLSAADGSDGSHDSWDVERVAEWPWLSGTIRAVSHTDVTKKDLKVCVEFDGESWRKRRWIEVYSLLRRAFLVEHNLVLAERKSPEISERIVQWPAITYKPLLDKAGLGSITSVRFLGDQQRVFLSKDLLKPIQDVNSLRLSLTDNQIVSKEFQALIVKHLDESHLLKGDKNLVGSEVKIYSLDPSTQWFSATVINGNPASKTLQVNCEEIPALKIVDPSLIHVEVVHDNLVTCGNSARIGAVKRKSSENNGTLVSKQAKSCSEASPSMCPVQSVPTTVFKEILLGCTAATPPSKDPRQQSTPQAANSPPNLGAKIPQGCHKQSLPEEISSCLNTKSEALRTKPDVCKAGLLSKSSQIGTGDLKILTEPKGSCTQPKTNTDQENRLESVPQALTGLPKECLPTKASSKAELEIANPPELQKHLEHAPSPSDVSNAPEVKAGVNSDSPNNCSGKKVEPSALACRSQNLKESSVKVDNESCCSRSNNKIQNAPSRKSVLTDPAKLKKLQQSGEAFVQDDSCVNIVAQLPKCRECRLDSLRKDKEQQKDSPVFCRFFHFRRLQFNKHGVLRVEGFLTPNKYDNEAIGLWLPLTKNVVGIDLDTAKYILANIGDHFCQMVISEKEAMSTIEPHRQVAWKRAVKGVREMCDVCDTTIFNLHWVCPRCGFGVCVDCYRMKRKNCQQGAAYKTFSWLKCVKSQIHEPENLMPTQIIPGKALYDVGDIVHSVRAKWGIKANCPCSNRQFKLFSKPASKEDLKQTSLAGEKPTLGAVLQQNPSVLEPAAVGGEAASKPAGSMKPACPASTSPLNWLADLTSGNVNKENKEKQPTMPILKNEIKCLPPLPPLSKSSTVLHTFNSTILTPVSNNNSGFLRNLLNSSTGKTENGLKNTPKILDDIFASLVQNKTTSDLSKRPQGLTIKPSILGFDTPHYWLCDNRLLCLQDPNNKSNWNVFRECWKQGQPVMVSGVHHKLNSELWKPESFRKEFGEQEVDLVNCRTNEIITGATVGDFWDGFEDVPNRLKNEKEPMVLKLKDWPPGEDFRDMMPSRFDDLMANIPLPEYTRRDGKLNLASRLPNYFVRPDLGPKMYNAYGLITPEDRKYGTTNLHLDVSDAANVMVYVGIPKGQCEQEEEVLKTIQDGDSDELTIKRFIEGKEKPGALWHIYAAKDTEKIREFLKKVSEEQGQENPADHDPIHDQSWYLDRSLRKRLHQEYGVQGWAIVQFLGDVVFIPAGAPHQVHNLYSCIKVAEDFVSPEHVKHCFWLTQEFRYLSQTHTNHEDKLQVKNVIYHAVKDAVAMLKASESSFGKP
In short: as §1

KDM3B (JMJD1B) = target: T3, KDM3B (JMJD1B) (Homo sapiens, UniProt Q7LBC6); experiment: Histone lysine demethylase AlphaLISA assay, KDM3B; conditions: read-out: KDM3B HDME Inhibition IC50
T3 construct: 842-1761; host or cells: Bac (baculovirus system)
T3 sequence (Q7LBC6 842-1761): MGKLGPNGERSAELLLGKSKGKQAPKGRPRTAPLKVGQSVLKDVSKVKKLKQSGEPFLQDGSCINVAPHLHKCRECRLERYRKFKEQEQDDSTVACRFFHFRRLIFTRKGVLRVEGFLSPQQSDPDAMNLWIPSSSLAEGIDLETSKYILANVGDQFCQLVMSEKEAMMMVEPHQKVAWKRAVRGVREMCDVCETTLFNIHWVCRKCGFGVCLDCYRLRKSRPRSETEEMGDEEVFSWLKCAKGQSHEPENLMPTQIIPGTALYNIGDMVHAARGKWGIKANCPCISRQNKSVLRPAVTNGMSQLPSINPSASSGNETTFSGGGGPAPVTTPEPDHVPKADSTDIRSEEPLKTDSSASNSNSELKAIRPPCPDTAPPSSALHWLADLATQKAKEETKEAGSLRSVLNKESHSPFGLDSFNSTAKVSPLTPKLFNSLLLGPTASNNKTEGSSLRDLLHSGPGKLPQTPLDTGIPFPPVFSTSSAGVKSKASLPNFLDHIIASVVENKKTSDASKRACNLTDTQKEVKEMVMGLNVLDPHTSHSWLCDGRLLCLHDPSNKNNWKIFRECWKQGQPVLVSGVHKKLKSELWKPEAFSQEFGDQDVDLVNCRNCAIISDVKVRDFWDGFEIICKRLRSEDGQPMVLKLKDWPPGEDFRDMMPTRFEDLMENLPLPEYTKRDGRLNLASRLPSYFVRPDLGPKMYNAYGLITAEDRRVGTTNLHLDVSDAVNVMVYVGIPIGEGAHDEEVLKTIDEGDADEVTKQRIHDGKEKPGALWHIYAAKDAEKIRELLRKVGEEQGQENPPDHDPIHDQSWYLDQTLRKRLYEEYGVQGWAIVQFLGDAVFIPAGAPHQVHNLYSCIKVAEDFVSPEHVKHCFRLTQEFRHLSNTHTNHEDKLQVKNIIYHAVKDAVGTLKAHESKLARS
In short: as §1

T1 sequence (P41229 2-1560): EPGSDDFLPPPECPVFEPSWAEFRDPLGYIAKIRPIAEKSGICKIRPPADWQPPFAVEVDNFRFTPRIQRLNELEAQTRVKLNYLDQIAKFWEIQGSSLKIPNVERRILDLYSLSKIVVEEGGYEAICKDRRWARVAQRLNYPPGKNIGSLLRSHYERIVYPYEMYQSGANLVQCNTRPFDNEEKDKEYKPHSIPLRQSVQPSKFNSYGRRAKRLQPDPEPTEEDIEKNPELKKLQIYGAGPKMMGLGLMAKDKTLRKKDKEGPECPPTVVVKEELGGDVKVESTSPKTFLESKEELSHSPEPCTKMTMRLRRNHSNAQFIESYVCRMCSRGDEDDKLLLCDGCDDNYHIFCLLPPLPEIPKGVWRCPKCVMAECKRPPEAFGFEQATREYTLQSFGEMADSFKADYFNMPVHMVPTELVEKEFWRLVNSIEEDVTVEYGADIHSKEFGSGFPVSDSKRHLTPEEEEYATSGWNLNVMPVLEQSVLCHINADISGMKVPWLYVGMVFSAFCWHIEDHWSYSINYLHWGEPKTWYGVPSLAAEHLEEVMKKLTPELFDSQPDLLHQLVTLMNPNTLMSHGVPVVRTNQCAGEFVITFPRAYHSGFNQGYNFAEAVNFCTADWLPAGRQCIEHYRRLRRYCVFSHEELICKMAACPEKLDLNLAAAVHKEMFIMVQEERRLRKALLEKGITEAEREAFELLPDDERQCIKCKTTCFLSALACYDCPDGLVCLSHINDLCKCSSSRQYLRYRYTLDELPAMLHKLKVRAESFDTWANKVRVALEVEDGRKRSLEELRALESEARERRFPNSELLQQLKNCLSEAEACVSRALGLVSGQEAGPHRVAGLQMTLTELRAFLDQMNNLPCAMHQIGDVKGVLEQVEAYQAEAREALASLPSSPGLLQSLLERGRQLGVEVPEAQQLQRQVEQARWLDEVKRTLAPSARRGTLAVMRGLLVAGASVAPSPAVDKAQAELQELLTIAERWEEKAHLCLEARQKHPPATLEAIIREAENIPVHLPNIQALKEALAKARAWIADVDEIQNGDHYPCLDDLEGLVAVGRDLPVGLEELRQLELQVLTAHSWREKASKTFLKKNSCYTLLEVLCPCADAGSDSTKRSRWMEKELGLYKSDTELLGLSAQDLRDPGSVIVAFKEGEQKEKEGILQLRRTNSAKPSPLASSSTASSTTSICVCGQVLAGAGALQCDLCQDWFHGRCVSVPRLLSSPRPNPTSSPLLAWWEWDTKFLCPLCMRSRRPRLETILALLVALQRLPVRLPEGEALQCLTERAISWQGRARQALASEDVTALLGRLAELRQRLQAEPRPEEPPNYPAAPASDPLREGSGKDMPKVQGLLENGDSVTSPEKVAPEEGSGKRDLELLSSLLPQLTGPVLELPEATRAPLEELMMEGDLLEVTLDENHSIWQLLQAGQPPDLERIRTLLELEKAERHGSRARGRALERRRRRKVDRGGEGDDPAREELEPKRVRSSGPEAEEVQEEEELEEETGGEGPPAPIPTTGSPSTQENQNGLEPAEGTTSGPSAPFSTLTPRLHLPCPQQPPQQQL

Compound | IC50 (KDM5C (JARID1C)) [µM] | IC50 (KDM3A (JMJD1A)) [µM] | IC50 (KDM3B (JMJD1B)) [µM]
CCN(CC)CCCCNCc1cc(C2NCCN2C)ccn1 (stereo not drawn) [Compound 65, [4-(diethylamino)-butyl]({[4-(1-methylimidazolidin-2-yl)pyridin-2-yl]methyl})amine] | < 0.25 | > 2.5 | > 2.5
CCN(CCN(C)C)C(=O)CNCc1cc(/C=N/CCO)ccn1 [Compound 66] | < 0.25 | > 2.5 | > 2.5
CCN(CC)CCCCNCc1cc(/C=N\CCC2CCCCC2)ccn1 [Compound 67, (2-cyclohexylethyl)-({[2-({[4-(diethylamino)-butyl]amino}methyl)pyridin-4-yl]methylidene})-amine] | < 0.25 | > 2.5 | > 2.5
CN(C)C/C=C/CNCc1cc(C=O)ccn1 [Compound 98, 2-({[(2E)-4-(dimethylamino)but-2-en-1-yl]amino}-methyl)pyridine-4-carbaldehyde] | < 0.25 | > 2.5 | > 2.5
CN(C)C/C=C\CNCc1cc(C=O)ccn1 [Compound 99, 2-({[(2Z)-4-(dimethylamino)-but-2-en-1-yl]amino}methyl)-pyridine-4-carbaldehyde] | < 0.25 | > 2.5 | > 2.5
CN1CCC(CNCc2cc(C=O)ccn2)CC1 [Compound 100, 2-({[(1-methyl-piperidin-4-yl)methyl]amino}-methyl)pyridine-4-carbaldehyde] | < 0.25 | > 2.5 | > 2.5
CCN(CCN(C)C)C(=O)CNCc1cc(C=O)ccn1 [Compound 101] | < 0.25 | > 2.5 | > 2.5
O=Cc1ccnc(CNCC(=O)N2CCC[C@@H]2CN2CCCC2)c1 [Compound 102, 2-[({2-oxo-2-[(2R)-2-(pyrrolidin-1-ylmethyl)pyrrolidin-1-yl]ethyl}amino)-methyl]pyridine-4-carbaldehyde] | < 0.25 | > 2.5 | > 2.5
CN1CCN(C(=O)CNCc2cc(C=O)ccn2)CC1 [Compound 103, 2-({[2-(4-methylpiperazin-1-yl)-2-oxoethyl]-amino}methyl)-pyridine-4-carbaldehyde] | < 0.25 | > 2.5 | > 2.5
CCN1CCCC1CNC(=O)CNCc1cc(C=O)ccn1 (stereo not drawn) [Compound 104, N-[(1-ethylpyrrolidin-2-yl)methyl]-2-{[(4-formylpyridin-2-yl)methyl]amino}-acetamide] | < 0.25 | > 2.5 | > 2.5
O=Cc1ccnc(CNCC(=O)N2CCC(Cc3ccccc3)CC2)c1 [Compound 106, 2-({[2-(4-benzylpiperidin-1-yl)-2-oxoethyl]-amino}methyl)-pyridine-4-carbaldehyde] | > 2.5 | > 2.5 | > 2.5
CCN(CC)CCCCNCc1cc(C=O)ccn1 [Compound 107, 2-({[4-(diethylamino)-butyl]amino}-methyl)pyridine-4-carbaldehyde] | < 0.25 | > 2.5 | > 2.5
CN(C)CCCCNCc1cc(C=O)ccn1 [Compound 108, 2-({[4-(dimethylamino)-butyl]amino}methyl)-pyridine-4-carbaldehyde] | < 0.25 | > 2.5 | > 2.5
CN(C)CCNCc1cc(C=O)ccn1 [Compound 110, 2-({[2-(dimethylamino)-ethyl]amino}methyl)-pyridine-4-carbaldehyde] | < 0.25 | > 2.5 | > 2.5
O=Cc1ccnc(CNCCCN2CCCC2)c1 [Compound 111, 2-({[3-(pyrrolidin-1-yl)propyl]amino}-methyl)pyridine-4-carbaldehyde] | < 0.25 | > 2.5 | > 2.5
CCN(CC)CCCCNC(=O)CNCc1cc(C=O)ccn1 [Compound 112, N-[4-(diethylamino)-butyl]-2-{[(4-formylpyridin-2-yl)methyl]amino}-acetamide] | < 0.25 | > 2.5 | > 2.5
CN(C)CCCCCNCc1cc(C=O)ccn1 [Compound 114, 2-({[5-(dimethylamino)-pentyl]amino}methyl)-pyridine-4-carbaldehyde] | < 0.25 | > 2.5 | > 2.5
CCN(CC)CCCCN(Cc1cc(C=O)ccn1)C(=O)C(F)(F)F [Compound 115, N-[4-(diethylamino)butyl]-2,2,2-trifluoro-N-[(4-formylpyridin-2-yl)methyl]acetamide] | < 0.25 | > 2.5 | > 2.5
